{"source": "patent US11730819B2", "about": "“Peptide derivatives having novel linkage structures” (priority 2016, dated 2023)", "note": "pKd, pKi: −log10 of the molar value. Numbered stars: 1 amine (or outer) side, 2 acyl side, 3 side chain; on linkers, the order of the positions; unused ones are H or OH. Bridge positions count the residues as written; N and C are the ends. Square brackets hold non-standard residues; d marks the D form. Peptide text beside a SMILES is read from it. 1Nal = N[C@@H](Cc1cccc2ccccc12)C(=O)O; TBMB = c1c(C[*:1])cc(C[*:3])cc1C[*:2]; Tle = CC(C)(C)[C@H](N)C(=O)O; βAla = NCCC(=O)O; Sar = CNCC(=O)O"}
{"target": "T1, MT1-MMP hemopexin domain (Homo sapiens, UniProt P50281)", "T1 construct": "residues Cys319-Gly511 from the human gene; His6 (N); made in house; host or cells: HEK293 cells (transient, pEXPR-IBA42 vector)", "assay": "Fluorescence polarisation competition binding assay", "details": "not given", "from_the_text": "(§1) The MT1-MMP hemopexin-like repeats (also known as the MT1-MMP hemopexin domain), residues Cys319-Gly511 from the human gene, were transiently expressed in HEK293 cells as secreted N-terminally His6-tagged soluble protein, using the pEXPR-IBA42 (IBA) expression vector. Following expression, the protein was purified by Nickel-NTA affinity chromatography followed by gel filtration, and purity was checked by SDS-PAGE. Batch to batch variability was also monitored by fluorescence thermal shift experiments in the presence/absence of a hemopexin domain binding bicycle.\n(§2) Binding affinity was measured using competition assays using Fluorescence Polarisation (anisotropy).\n(§3) Fluoresceination may be performed on the N-terminal amino group of the peptide, which is separated from the bicycle core sequence by a sarcosine spacer (usually Sar5). This can be done during Fmoc solid phase synthesis or post-synthetically (after cyclisation with TBMB and purification) if the N-terminal amino group is unique to the peptide. Fluoresceination can also be performed on the C-terminus, usually on a Lysine introduced as the first C-terminal residue, which is then separated from the bicycle core sequence by a sarcosine spacer (usually Sar6). Thus, N-terminal tracers can have a molecular format described as Fluo-Gly-Sar5-A(BicycleCoreSequence), and (BicycleCoreSequence)-A-Sar6-K(Fluo) for a C-terminally fluoresceinated construct. Fluorescent tracers used in the Examples are A-(17-69)-A-Sar6-K(Fluo), A-(17-69-07)-A-Sar6-K(Fluo), and A-(17-69-12)-A-Sar6-K(Fluo).\n(§4) Here, a pre-formed complex of PEX with the fluorescent PEX-binding tracer is titrated with free, non-fluoresceinated bicyclic peptide. Since all 17-69-based peptides are expected to bind at the same site, the titrant will displace the fluorescent tracer from PEX. Dissociation of the complex can be measured quantitatively, and the Kd of the competitor (titrant) to the target protein determined. The advantage of the competition method is that the affinities of non-fluoresceinated bicyclic peptides can be determined accurately and rapidly.\n(§5) Subsequently, the non-fluorescent competitor bicyclic peptide (usually just the bicycle core sequence) is titrated, such that it displaces the fluorescent tracer from the target protein. The displacement of the tracer is measured and associated with a drop in fluorescence polarisation. The drop in fluorescence polarisation is proportional to the fraction of target protein bound with the non-fluorescent titrant, and thus is a measure of the affinity of titrant to target protein.\n(§6) The raw data is fit to the analytical solution of the cubic equation that describes the equilibria between fluorescent tracer, titrant, and binding protein. The fit requires the value of the affinity of fluorescent tracer to the target protein, which can be determined separately by direct binding FP experiments (see previous section)."}
{"smiles": "CC(=O)N[C@@H](C)C(=O)N[C@H]1CN(C)Cc2cc3cc(c2)CN(C)C[C@H](NC(=O)[C@@H](C)NC(=O)[C@H](Cc2cccc4ccccc24)NC(=O)[C@H](CCC(=O)O)NC(=O)[C@H](CC(N)=O)NC(=O)[C@@H](C)NC1=O)C(=O)N[C@@H](CCC(=O)O)C(=O)N[C@@H](CC(=O)O)C(=O)N[C@@H](Cc1ccccc1)C(=O)N[C@@H](Cc1ccc(O)cc1)C(=O)N[C@@H](CC(=O)O)C(=O)N[C@@H](C(C)(C)C)C(=O)N[C@H](C(N)=O)CSC3", "note": "[17-69-07-N470, Ac-A(Dap(Me))(D-Ala)NE(1Nal)(D-Ala)(Dap(Me))EDFYD(tBuGly)C]", "pKi": 8.08}
{"smiles": "CC(=O)N[C@@H](C)C(=O)N[C@H]1CN(C)Cc2cc3cc(c2)CN(C)C[C@H](NC(=O)[C@@H](C)NC(=O)[C@H](Cc2cccc4ccccc24)NC(=O)[C@H](CCC(=O)O)NC(=O)[C@H](CC(N)=O)NC(=O)[C@@H](C)NC1=O)C(=O)N[C@@H](CCC(=O)O)C(=O)N[C@@H](CC(=O)O)C(=O)N[C@@H](Cc1ccccc1)C(=O)N[C@@H](Cc1ccc(O)cc1)C(=O)N[C@@H](CC(=O)O)C(=O)N[C@@H](C(C)(C)C)C(=O)N[C@H](C(N)=O)CN(C)C3", "note": "[17-69-07-N474, Ac-A(Dap(Me))(D-Ala)NE(1NaI)(D-Ala)(Dap(Me))EDFYD(tBuGly)(Dap(Me))]", "pKd": 8.10, "pKi": 8.12}
{"smiles": "CC(=O)N[C@@H](C)C(=O)N[C@H]1CNCc2cc3cc(c2)CSC[C@H](NC(=O)[C@@H](C)NC(=O)[C@H](Cc2cccc4ccccc24)NC(=O)[C@H](CCC(=O)O)NC(=O)[C@H](CC(N)=O)NC(=O)[C@@H](C)NC1=O)C(=O)N[C@@H](CCC(=O)O)C(=O)N[C@@H](CC(=O)O)C(=O)N[C@@H](Cc1ccccc1)C(=O)N[C@@H](Cc1ccc(O)cc1)C(=O)N[C@@H](CC(=O)O)C(=O)N[C@@H](C(C)(C)C)C(=O)N[C@H](C(N)=O)CNC3", "note": "[17-69-07-N385, Ac-A(Dap)(D-Ala)NE(1Nal)(D-Ala)CEDFYD(tBuGly)(Dap)]", "pKd": 9.35}
{"smiles": "C#CCCC(=O)NCCC(=O)N(C)CC(=O)N(C)CC(=O)N(C)CC(=O)N(C)CC(=O)N(C)CC(=O)N(C)CC(=O)N(C)CC(=O)N(C)CC(=O)N(C)CC(=O)N(C)CC(=O)N[C@@H](C)C(=O)N[C@H]1CNCc2cc3cc(c2)CSC[C@H](NC(=O)[C@@H](C)NC(=O)[C@H](Cc2cccc4ccccc24)NC(=O)[C@H](CCC(=O)O)NC(=O)[C@H](CC(N)=O)NC(=O)[C@@H](C)NC1=O)C(=O)N[C@@H](CCC(=O)O)C(=O)N[C@@H](CC(=O)O)C(=O)N[C@@H](Cc1ccccc1)C(=O)N[C@@H](Cc1ccc(O)cc1)C(=O)N[C@@H](CC(=O)O)C(=O)N[C@@H](C(C)(C)C)C(=O)N[C@H](C(N)=O)CNC3", "note": "[17-69-07-N434, (PYA)-(B-Ala)-Sar10-A(Dap)(D-Ala)NE(1Nal)(D-Ala)CEDFYD(tBuGly)(Dap)]", "pKd": 8.82}
{"smiles": "C[C@H](NC(=O)CN(C)C(=O)CN(C)C(=O)CN(C)C(=O)CN(C)C(=O)CN(C)C(=O)CN(C)C(=O)CN(C)C(=O)CN(C)C(=O)CN(C)C(=O)CN(C)C(=O)CCN)C(=O)N[C@H]1CSCc2cc3cc(c2)CSC[C@H](NC(=O)[C@@H](C)NC(=O)[C@H](Cc2cccc4ccccc24)NC(=O)[C@H](CCC(=O)O)NC(=O)[C@H](CC(N)=O)NC(=O)[C@@H](C)NC1=O)C(=O)N[C@@H](CCC(=O)O)C(=O)N[C@@H](CC(=O)O)C(=O)N[C@@H](Cc1ccccc1)C(=O)N[C@@H](Cc1ccc(O)cc1)C(=O)N[C@@H](CC(=O)O)C(=O)N[C@@H](C(C)(C)C)C(=O)N[C@H](C(N)=O)CSC3", "note": "[17-69-07-N241, H-(β-Ala)-Sar10-Ala-Cys-(D-Ala)-Asn-Glu-(1Nal)-(D-Ala)-Cys-Glu-Asp-Phe-Tyr-Asp-(tBuGly)-Cys-NH2, reference compound] (H-[βAla][Sar][Sar][Sar][Sar][Sar][Sar][Sar][Sar][Sar][Sar]AC[dA]NE[1Nal][dA]CEDFYD[Tle]C-NH2; linker 13-19-26 via TBMB)", "pKd": 9.64}
{"smiles": "CC(=O)N[C@@H](C)C(=O)N[C@H]1CNCc2cc3cc(c2)CSC[C@H](NC(=O)[C@@H](C)NC(=O)[C@H](Cc2cccc4ccccc24)NC(=O)[C@H](CCC(=O)O)NC(=O)[C@H](CC(N)=O)NC(=O)[C@@H](C)NC1=O)C(=O)N[C@@H](CCC(=O)O)C(=O)N[C@@H](CC(=O)O)C(=O)N[C@@H](Cc1ccccc1)C(=O)N[C@@H](Cc1ccccc1)C(=O)N[C@@H](CC(=O)O)C(=O)N[C@@H](C(C)(C)C)C(=O)N[C@H](C(N)=O)CNC3", "note": "[17-69-07-N428, Ac-A(Dap)(D-Ala)NE(1Nal)(D-Ala)CEDFF9D(tBuGly)(Dap)]", "pKd": 8.46}
{"target": "T1, MT1-MMP hemopexin domain", "assay": "Fluorescence polarisation competition binding assay", "details": "Binding Affinity Ki (h), human MT1-MMP, bicycle peptides", "from_the_text": "as §1, §2, §3, §4, §5, §6"}
{"smiles": "CC(=O)NCCC(=O)N(C)CC(=O)N(C)CC(=O)N(C)CC(=O)N(C)CC(=O)N(C)CC(=O)N(C)CC(=O)N(C)CC(=O)N(C)CC(=O)N(C)CC(=O)N(C)CC(=O)N[C@@H](C)C(=O)N[C@H]1CNCc2cc3cc(c2)CSC[C@H](NC(=O)[C@@H](C)NC(=O)[C@H](Cc2cccc4ccccc24)NC(=O)[C@H](CCC(=O)O)NC(=O)[C@H](CC(N)=O)NC(=O)[C@@H](C)NC1=O)C(=O)N[C@@H](CCC(=O)O)C(=O)N[C@@H](CC(=O)O)C(=O)N[C@@H](Cc1ccccc1)C(=O)N[C@@H](Cc1ccc(O)cc1)C(=O)N[C@@H](CC(=O)O)C(=O)N[C@@H](C(C)(C)C)C(=O)N[C@H](C(N)=O)CNC3", "note": "[17-69-07-N455, Ac-(B-Ala)-Sar10-A(Dap)(D-Ala)NE(1Nal)(D-Ala)CEDFYD(tBuGly)(Dap)]", "pKi": 8.40}
{"smiles": "C#CCCC(=O)N[C@@H](C)C(=O)N[C@H]1CNCc2cc3cc(c2)CSC[C@H](NC(=O)[C@@H](C)NC(=O)[C@H](Cc2cccc4ccccc24)NC(=O)[C@H](CCC(=O)O)NC(=O)[C@H](CC(N)=O)NC(=O)[C@@H](C)NC1=O)C(=O)N[C@@H](CCC(=O)O)C(=O)N[C@@H](CC(=O)O)C(=O)N[C@@H](Cc1ccccc1)C(=O)N[C@@H](Cc1ccc(O)cc1)C(=O)N[C@@H](CC(=O)O)C(=O)N[C@@H](C(C)(C)C)C(=O)N[C@H](C(N)=O)CNC3", "note": "[17-69-07-N438, PYA-A(Dap)(D-Ala)NE(1Nal)(D-Ala)CEDFYD(tBuGly)(Dap)]", "pKi": 8.51}
{"target": "T1, MT1-MMP hemopexin domain", "assay": "Fluorescence polarisation competition binding assay", "details": "human MT1-MMP, bicycle peptides; read-out: Binding Affinity Ki (h)", "from_the_text": "as §1, §2, §3, §4, §5, §6"}
{"smiles": "CC(=O)N[C@H]1CN(C)Cc2cc3cc(c2)CN(C)C[C@@H](C(N)=O)NC(=O)[C@H](C(C)(C)C)NC(=O)[C@H](CC(=O)O)NC(=O)[C@H](Cc2ccc(O)cc2)NC(=O)[C@H](Cc2ccccc2)NC(=O)[C@H](CC(=O)O)NC(=O)[C@H](CCC(=O)O)NC(=O)[C@H](CSC3)NC(=O)[C@@H](C)NC(=O)[C@H](Cc2cccc3ccccc23)NC(=O)[C@H](CCC(=O)O)NC(=O)[C@H](CC(N)=O)NC(=O)[C@@H](C)NC1=O", "note": "[17-69-07-N461, Ac(Dap(Me))(D-Ala)NE(1Nal)(D-Ala)CEDFYD(tBuGly)(Dap(Me))]", "pKi": 8.22}
{"smiles": "CC(=O)NCCC(=O)N(C)CC(=O)N(C)CC(=O)N(C)CC(=O)N(C)CC(=O)N(C)CC(=O)N(C)CC(=O)N(C)CC(=O)N(C)CC(=O)N(C)CC(=O)N(C)CC(=O)N[C@@H](C)C(=O)N[C@H]1CN(C)Cc2cc3cc(c2)CN(C)C[C@@H](C(N)=O)NC(=O)[C@H](C(C)(C)C)NC(=O)[C@H](CC(=O)O)NC(=O)[C@H](Cc2ccc(O)cc2)NC(=O)[C@H](Cc2ccccc2)NC(=O)[C@H](CC(=O)O)NC(=O)[C@H](CCC(=O)O)NC(=O)[C@H](CSC3)NC(=O)[C@@H](C)NC(=O)[C@H](Cc2cccc3ccccc23)NC(=O)[C@H](CCC(=O)O)NC(=O)[C@H](CC(N)=O)NC(=O)[C@@H](C)NC1=O", "note": "[17-69-07-N454, Ac-(B-Ala)-Sar10-A(Dap(Me))(D-Ala)NE(1Nal)(D-Ala)CEDFYD(tBuGly)(Dap(Me))]", "pKi": 8.52}
{"smiles": "C#CCCC(=O)N[C@@H](C)C(=O)N[C@H]1CN(C)Cc2cc3cc(c2)CN(C)C[C@@H](C(N)=O)NC(=O)[C@H](C(C)(C)C)NC(=O)[C@H](CC(=O)O)NC(=O)[C@H](Cc2ccc(O)cc2)NC(=O)[C@H](Cc2ccccc2)NC(=O)[C@H](CC(=O)O)NC(=O)[C@H](CCC(=O)O)NC(=O)[C@H](CSC3)NC(=O)[C@@H](C)NC(=O)[C@H](Cc2cccc3ccccc23)NC(=O)[C@H](CCC(=O)O)NC(=O)[C@H](CC(N)=O)NC(=O)[C@@H](C)NC1=O", "note": "[17-69-07-N443, PYA-A(Dap(Me))(D-Ala)NE(1Nal)(D-Ala)CEDFYD(tBuGly)(Dap(Me))]", "pKi": 8.49}
